The results in this text go back to ChEMBL document CHEMBL3272195, “Synthesis and antimicrobial activity of certain 6H-1,2,4-oxadiazin-3(2H)-ones” (1977).

By MIC is commonly meant the smallest concentration in the dilution series that meets the test's criterion for growth inhibition. A higher MIC goes with a need for much substance.

Test [1] has as its system Human respirovirus 3. Kind of test: Antiviral activity against Parainfluenza virus 3. Type of test: functional, organism-based.
In test [2] the test system is Pseudomonas aeruginosa. Kind of test: Antimicrobial activity against Pseudomonas aeruginosa after 24 hrs by broth dilution assay. Type of test: functional. On the technique in general: Dilution methods test growth across graded concentrations, often in twofold steps.
The test system of test [3] is Candida albicans. Put plainly: Antimicrobial activity against Candida albicans after 48 hrs by broth dilution assay. Type of test: functional.
For test [4], the system named is Escherichia coli. Put plainly: Antimicrobial activity against Escherichia coli after 24 hrs by broth dilution assay. Type of test: functional.
The subject of test [5] is Human rhinovirus A13. Kind of test: Antiviral activity against Rhinovirus A13. Type of test: functional.
Test [6] deals with Human alphaherpesvirus 1. Kind of test: Antiviral activity against Herpes simplex virus type 1. Format: functional, organism-based.
Test [7] deals with Staphylococcus aureus. Kind of test: Antimicrobial activity against Staphylococcus aureus after 24 hrs by broth dilution assay. Type of test: functional.
The subject of test [8] is Trichophyton mentagrophytes. Put plainly: Antimicrobial activity against Trichophyton mentagrophytes after 48 hrs by broth dilution assay. Type of test: functional.
Test [9] deals with Pseudomonas aeruginosa. Put plainly: Antimicrobial activity against Pseudomonas aeruginosa paper disc treated with 24 hrs urine sample from 100 mg/kg, po compound treated ICR mouse measured after 18 to 24 hrs by disc diffusion assay. Details: dose 100 mg/kg. Type of test: functional, organism-based. For orientation: A growth-free zone around the sample is the usual read-out of agar diffusion tests.

The subject of test [10] is Escherichia coli. Kind of test: Antimicrobial activity against Escherichia coli paper disc treated with 24 hrs urine sample from 100 mg/kg, po compound treated ICR mouse measured after 18 to 24 hrs by disc diffusion assay. Details: dose 100 mg/kg. Type of test: functional, organism-based.

Each structure is given as a SMILES string. Converted amounts (≈) assume the structure as drawn. The source made the active and inactive calls.

In the case of `O=C1N=C(NO)CON1`, the result in [1], in test [5] and in test [6] was inactive. In addition, the MIC in test [2], in [3], in test [4], in test [7] and in test [8] was > 400 µM throughout.

With `NNC1=NC(=O)NOC1`, the result in test [1], in test [5] and in test [6] was inactive. Further, the minimum inhibitory concentration (MIC) in [2], in [3], in test [4], in [7] and in test [8] was > 400 µM each time.

`O=C1NOCC(=S)N1`: the outcome in [1], in [9], in [5], in test [6] and in test [10] was inactive. Moreover, the MIC in test [2] was 20 µM (≈ 2.64 µg/mL); in test [3], 320 µM (≈ 42.3 µg/mL); in [4], < 5 µM; in test [7], 10 µM (≈ 1.32 µg/mL); in test [8], 320 µM (≈ 42.3 µg/mL).

Take `CN(C)C1=NC(=O)NOC1`: the result in test [1], in test [5] and in test [6] was inactive. Further, the MIC in test [2] is > 400 µM; in test [3], > 400 µM; in [4], 160 µM (≈ 22.9 µg/mL); in test [7] it was 320 µM (≈ 45.8 µg/mL); in [8], > 400 µM.

Consider `NC1=NC(=O)NOC1`, for which the outcome in [1], in [5] and in test [6] was inactive. In addition, the minimal inhibitory concentration (MIC) in test [2] was 80 µM (≈ 9.21 µg/mL); in test [3], > 400 µM; in [4] it was 10 µM (≈ 1.15 µg/mL); in [7] it was 320 µM (≈ 36.8 µg/mL); in [8] it was > 400 µM. The result in [9] and in test [10] was Active.

Take `O=C1CON(C(=O)OCc2ccccc2)C(=O)N1`: the result in [1], in test [9], in test [5], in test [6] and in test [10] was inactive. For the same compound, the minimal inhibitory concentration (MIC) in test [2] is 20 µM (≈ 5 µg/mL); in test [3] it was > 400 µM; in test [4] it was 20 µM (≈ 5 µg/mL); in test [7] it was 80 µM (≈ 20 µg/mL); in [8], > 400 µM.

With `O=C1NC(=S)CON1Cc1ccccc1`, the outcome in [1], in [5] and in [6] was inactive. Besides, the minimal inhibitory concentration (MIC) in [2] is > 400 µM; in test [3], 320 µM (≈ 71.1 µg/mL); in test [4], > 400 µM; in [7], > 400 µM; in [8], 160 µM (≈ 35.6 µg/mL).

Regarding `O=C1N=C(NCc2ccccc2)CON1`, the outcome in test [1], in test [5] and in [6] was inactive. Further, the minimum inhibitory concentration (MIC) was > 400 µM in test [2]; > 400 µM in test [3]; 320 µM (≈ 65.7 µg/mL) in test [4]; 400 µM (≈ 82.1 µg/mL) in test [7]; > 400 µM in [8].

As for `CCOC(=O)CONC(N)=O`, the MIC in test [2] was 320 µM (≈ 51.9 µg/mL); in test [3], > 400 µM; in test [4], 160 µM (≈ 25.9 µg/mL); in [7], 80 µM (≈ 13 µg/mL); in test [8], > 400 µM.

On to `O=C1N=C(NC(c2ccccc2)c2ccccc2)CON1`, for which the outcome in test [1], in [5] and in test [6] was inactive. The MIC in test [2] is 320 µM (≈ 90 µg/mL); in [3], > 400 µM; in test [4] it was 320 µM (≈ 90 µg/mL); in test [7], 160 µM (≈ 45 µg/mL); in [8], > 400 µM.

Regarding `CNC1=NC(=O)NOC1`, the outcome in test [1], in test [5] and in test [6] was inactive. Besides, the MIC in test [2] is > 400 µM; in test [3] it was > 400 µM; in [4], 320 µM (≈ 41.3 µg/mL); in [7] it was 320 µM (≈ 41.3 µg/mL); in test [8], 320 µM (≈ 41.3 µg/mL).

`CN1OCC(=S)NC1=O`: the result in test [1], in test [5] and in [6] was inactive. The MIC in test [2] was > 400 µM; in [3] it was 400 µM (≈ 58.5 µg/mL); in [4], > 400 µM; in test [7], > 400 µM; in test [8], 160 µM (≈ 23.4 µg/mL).

`O=C1CONC(=O)N1`: the result in test [1], in test [9], in test [5], in test [6] and in test [10] was inactive. Moreover, the MIC in [2] was 40 µM (≈ 4.64 µg/mL); in test [3], > 400 µM; in [4] it was 10 µM (≈ 1.16 µg/mL); in test [7], 20 µM (≈ 2.32 µg/mL); in test [8], > 400 µM.
